The values that follow come from ChEMBL document CHEMBL5500323, “Plasmodium falciparum topoisomerases: Emerging targets for anti-malarial therapy” (Eur J Med Chem, 2024).

Test [1] in a line: Inhibition of DNA topoisomerase II (unknown origin). On the set-up: species or system Homo sapiens.
Test [2] in a line: Inhibition of recombinant Plasmodium falciparum strain 3D7 Gyrase B expressed in Escherichia coli BL21 (DE3).
A further test has as its target DNA gyrase (Escherichia coli, UniProt P0AES4+P0AES6). The experiment in a line: Inhibition of Escherichia coli DNA gyrase ATPase activity incubated for 80 mins. The test is classed as protein-complex assay.
Test [3] in a line: Inhibition of Plasmodium falciparum NF54 Gyrase B.
Test [4] is described as follows: Inhibition of Plasmodium falciparum 3D7 Gyrase B.
Test [5] in a line: Inhibition of C-terminal 6His-tagged Plasmodium falciparum Gyrase B expressed in Escherichia coli.
Another test addresses T1, DNA topoisomerase 2 (Plasmodium falciparum K1, UniProt P41001).
T1 sequence (P41001 whole entry): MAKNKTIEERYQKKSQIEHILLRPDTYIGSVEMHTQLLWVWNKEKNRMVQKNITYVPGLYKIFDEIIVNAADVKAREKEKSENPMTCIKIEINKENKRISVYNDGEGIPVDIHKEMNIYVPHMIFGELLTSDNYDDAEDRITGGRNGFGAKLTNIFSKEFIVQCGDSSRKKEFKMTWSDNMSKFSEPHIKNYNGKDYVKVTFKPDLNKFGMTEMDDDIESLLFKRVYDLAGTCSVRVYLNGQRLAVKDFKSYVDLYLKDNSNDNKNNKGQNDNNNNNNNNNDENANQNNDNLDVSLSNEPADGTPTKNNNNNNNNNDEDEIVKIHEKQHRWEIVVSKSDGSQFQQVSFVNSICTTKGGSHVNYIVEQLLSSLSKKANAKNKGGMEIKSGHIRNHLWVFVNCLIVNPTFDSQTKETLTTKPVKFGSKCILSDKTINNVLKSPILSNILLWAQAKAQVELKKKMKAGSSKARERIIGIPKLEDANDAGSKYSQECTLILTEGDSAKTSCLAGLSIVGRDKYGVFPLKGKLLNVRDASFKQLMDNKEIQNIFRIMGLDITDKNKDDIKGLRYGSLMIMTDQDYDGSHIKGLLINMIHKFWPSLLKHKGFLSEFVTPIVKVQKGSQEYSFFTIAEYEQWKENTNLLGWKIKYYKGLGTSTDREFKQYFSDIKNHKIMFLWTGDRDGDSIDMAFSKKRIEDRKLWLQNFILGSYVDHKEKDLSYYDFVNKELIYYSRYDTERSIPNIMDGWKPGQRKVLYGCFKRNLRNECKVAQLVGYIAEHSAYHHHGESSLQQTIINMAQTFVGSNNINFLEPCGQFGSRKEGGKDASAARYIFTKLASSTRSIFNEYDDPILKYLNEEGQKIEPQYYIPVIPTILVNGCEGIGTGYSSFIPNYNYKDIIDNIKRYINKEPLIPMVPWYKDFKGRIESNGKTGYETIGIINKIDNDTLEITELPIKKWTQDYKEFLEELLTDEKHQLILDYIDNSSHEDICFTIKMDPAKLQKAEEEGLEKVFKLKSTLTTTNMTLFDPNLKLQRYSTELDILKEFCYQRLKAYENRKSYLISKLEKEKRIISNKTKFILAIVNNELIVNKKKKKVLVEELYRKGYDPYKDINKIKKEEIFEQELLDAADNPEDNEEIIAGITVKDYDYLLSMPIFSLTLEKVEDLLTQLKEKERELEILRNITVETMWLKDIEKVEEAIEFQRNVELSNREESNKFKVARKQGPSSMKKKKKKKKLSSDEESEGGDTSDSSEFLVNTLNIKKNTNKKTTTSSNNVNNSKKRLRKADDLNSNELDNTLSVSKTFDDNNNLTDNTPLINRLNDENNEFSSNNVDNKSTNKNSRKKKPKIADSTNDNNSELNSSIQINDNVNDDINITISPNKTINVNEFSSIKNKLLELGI
Nature of the test: Inhibition of Plasmodium falciparum isolate K1 DNA topoisomerase 2.

Test [6] in a line: Inhibition of Plasmodium falciparum DNA topoisomerase VI.

One may read the IC50 as the concentration needed to halve the response being measured.

For `COc1ccc2ncc(C#N)c(CCN3CCC(NCc4cc5c(cn4)OCS5)CC3)c2c1`, the 50% inhibitory concentration (IC50) in test [1] amounted to 0.6 µM.

As to `CO[C@@H]1[C@@H](OC(=O)c2ccc(C)[nH]2)[C@@H](O)[C@H](Oc2ccc3c(O)c(NC(=O)c4c[nH]c(C(=O)Nc5c(O)c6ccc(O[C@@H]7OC(C)(C)[C@H](OC)[C@@H](OC(=O)c8ccc(C)[nH]8)[C@H]7O)c(C)c6oc5=O)c4C)c(=O)oc3c2C)OC1(C)C`, the IC50 in test [2] is 40 µM.

For `O=C1c2ccccc2C(=O)c2c1cc(S(=O)(=O)O)c(O)c2O` [Alizarin Red S], on DNA gyrase, it took 55.6 µM to reach half-maximal inhibition (IC50).

On to `O=C(O)c1cn(C2CC2)c2cc(N3CCNCC3)c(F)cc2c1=O` [CIPROFLOXACIN], for which, in test [1], half-maximal inhibition (IC50) required 35 µM.

Regarding `NC1CCN(c2c(F)cc3c(=O)c(C(=O)O)cn(C4CC4)c3c2Cl)C1` (configuration not stated) [CLINAFLOXACIN], the IC50 in test [3] was 3.2 µM.

`COc1cc([C@@H]2c3cc4c(cc3[C@@H](O[C@@H]3O[C@@H]5CO[C@@H](C)O[C@H]5[C@H](O)[C@H]3O)[C@H]3COC(=O)[C@H]23)OCO4)cc(OC)c1O` [ETOPOSIDE]: in test [1], the 50% inhibitory concentration (IC50) came out at 20 µM.

In test [4], `C[n+]1c2cc(N)ccc2cc2ccc(N)cc21` [EUFLAVINE] returned a half-inhibitory concentration (IC50) of 1 µM.

On to `COc1c(N2CCNC(C)C2)c(F)cc2c(=O)c(C(=O)O)cn(C3CC3)c12` (configuration not stated) [GATIFLOXACIN], for which the 50% inhibitory concentration (IC50) in test [3] stood at 12 µM.

On to `CO[C@@H]1[C@@H](OC(N)=O)[C@@H](O)[C@H](Oc2ccc3c(O)c(NC(=O)c4ccc(O)c(CC=C(C)C)c4)c(=O)oc3c2C)OC1(C)C` [NOVOBIOCIN], for which half-maximal inhibition in test [5] (IC50) required 30 µM.

With `O=c1c(O)cccc2cc(O)c(O)c(O)c12` [PURPUROGALLIN], inhibition at DNA gyrase was half-maximal at 9.56 µM (IC50).

In turn, `COc1ccc2nc3cc(Cl)ccc3c(Nc3cc(CN4CCCC4)c(O)c(CN4CCCC4)c3)c2n1` [PYRONARIDINE] came in with a 50% inhibitory concentration (IC50) against DNA topoisomerase 2 of 5.5 µM.

In test [6], `C[C@@H]1C[C@H]2O[C@@H]2/C=C\C=C\C(=O)Cc2c(Cl)c(O)cc(O)c2C(=O)O1` [RADICICOL] displayed a half-maximal inhibitory concentration (IC50) of 80 µM.
